{
  "source": "patent US20220339187A1",
  "about": "“ANTIMICROBIAL PEPTIDE-SELENIUM NANOPARTICLES” (The University of Melbourne, priority 2019, published 2022)",
  "key": {"[1]": {"system": "all tested bacterial strains (S. aureus, E. faecalis, E. coli, A. baumannii, P. aeruginosa, K. pneumoniae)", "experiment": "Membrane disruption test (PI-positive cells)", "type": "cell-based", "conditions": "6.25 or 12.5 μg/ml, 90 min", "protocol": "The bacterial strains methicillin-sensitive S. aureus ATCC 29213, E. faecalis ATCC 29212, E. coli ATCC 25922, A. baumannii 2208 ATCC19606, P. aeruginosa strain PAO1-LAC ATCC 47085 and K. pneumoniae ATCC 13883 were cultured in MHB at 37° C. 50 μL of different concentrations of Se NPs, Se NP-ε-PL or pure ε-PL in PBS solution was added into each well of 96-well microplates. 50 μL MHB with 2.5×10^6 cells/mL bacteria was then added into each well. 50 μL MHB with 2.5×10^6 cells/mL bacteria was added to 50 μL PBS to act as untreated control. After 90 min incubation at 37° C., 0.1% of a green-fluorescent nucleic acid stain (SYTO 9, Thermo Fisher Scientific) and 0.1% of propidium iodide (PI) were added to each well and incubated again for 5 min. SYTO 9 can stain both live and dead Gram-positive and Gram-negative bacteria. PI is a red-florescent nuclear and chromosome counterstain but is not permeant to cells with intact plasma membranes. A Cell Lab Quanta SC MPL flow cytometer (Beckman Coulter) was adopted to measure the percent of PI-positive cells. Two independent tests were performed, and two parallel samples were used in each test for each variation."}, "[2]": {"system": "human dermal fibroblast cells (HDF)", "experiment": "Cell Counting Kit-8 (CCK-8) cytotoxicity assay", "type": "cell-based", "conditions": "all tested concentrations (1-50 μg/mL), 24 h", "protocol": "Two methods were adopted to test the cytotoxicity of Se NP-ε-PL, namely the Cell Counting Kit-8 (CCK-8) assay and Lactate Dehydrogenase (LDH) assay.\nCytotoxicity of Se NPs, Se NP-ε-PL and pure ε-PL was tested using human dermal fibroblast cells (HDF). HDF were cultured in Dulbecco's modified Eagle's medium (DMEM) with 10% foetal bovine serum (FBS), 100 U·mL^−1 penicillin and 100 μg·mL^−1 streptomycin at 37° C. in a humidified atmosphere of 5% CO2. For the CCK-8 tests, filter sterilised Se NPs, Se NP-ε-PL and pure ε-PL in PBS suspensions were diluted in PBS to concentrations of 20, 50, 100, 200, 500 and 1000 μg/mL and 5% (v/v) of these diluted solutions were added to DMEM to give final concentrations of Se NPs of 1, 2.5, 5, 10, 25 and 50 μg/mL The control groups involved DMEM as the negative control and DMEM with 10% dimethyl sulfoxide (DMSO) as the positive control, according to ISO 10993-12 standard. […] 100 μL medium from each well was then transferred to new 96-well plates and the absorbance of each well was tested using a microplate reader (M200 PRO, Tecan) at a wavelength of 450 nm. The cell viability (X) of each experimental group was calculated based on 5 samples according the following formula: […]\nwhere OD1 represents the mean absorbance of experimental groups and the positive control group and OD2 represents the mean absorbance of the negative control group."}, "E. coli ATCC 25922": {"system": "E. coli ATCC 25922", "experiment": "Adenosine triphosphate (ATP) test (BacTiter-Glo)", "type": "cell-based, Escherichia coli", "conditions": "1 h at 37° C.", "protocol": "The bacterial strains methicillin-sensitive S. aureus ATCC 29213, E. faecalis ATCC 29212, E. coli ATCC 25922 and K. pneumoniae ATCC 13883 were cultured in MHB at 37° C. 50 μL of Se NPs, Se NP-ε-PL or pure ε-PL in PBS solution was added into each well of 96-well microplates. 50 μL MHB with 2.5×10^6 cells/mL bacteria was then added into each well. After 1h incubation at 37° C., the 96-well microplates were transferred to room temperature for a further 30 min incubation period. 100 μL of BacTiter-Glo™ reagent (Promega, Australia) was added into each well, then mixed on an orbital shaker and incubated for 5 min. The luminescence was recorded using a microplate reader (PerkinElmer 1420 Multilabel Counter VICTOR3).\nA standard curve was generated by adopting the following steps. 10-fold serial dilutions of ATP from 1 μM to 10 pM in 100 μL MHB were prepared. 100 μL of BacTiter-Glo™ reagent was added into each well, then mixed on an orbital shaker and incubated for 1 min. The luminescence was recorded using a microplate reader (PerkinElmer 1420 Multilabel Counter VICTOR3)."}, "E. faecalis ATCC 29212": {"system": "E. faecalis ATCC 29212", "experiment": "ROS production test (CellROX Orange, flow cytometry)", "type": "cell-based, Enterococcus faecalis", "conditions": "6.25 or 12.5 μg/ml", "protocol": "The bacterial strains methicillin-sensitive S. aureus (MSSA) ATCC 29213, E. faecalis ATCC 29212, E. coli ATCC 25922 were cultured in MHB at 37° C. 50 μL of different concentration of Se NPs, Se NP-ε-PL or pure ε-PL in PBS solution was added into each well of a 96-well microplate. 50 μL MHB with 2.5×10^6 cells/mL bacteria was then added into each well. After 90 min incubation at 37° C., CellROX® Orange Reagent was added into each well at a final concentration of 750 nM. The cells were incubated for a further 1 h. The fluorescence from the CellROX Orange Reagent was measured on FL-3 (red fluorescence channel) using the Cell Lab Quanta SC MPL flow cytometer (Beckman Coulter). Two independent experiments were done for this test, and two technical replicates were adopted for each independent experiment."}, "[3]": {"system": "methicillin-sensitive S. aureus (MSSA) ATCC 29213", "experiment": "Membrane potential change test (BacLight, DiOC2(3))", "type": "cell-based, Staphylococcus aureus", "conditions": "6.25 or 12.5 μg/ml", "protocol": "Membrane potential change was measured using a BacLight Bacterial Membrane Potential Kit (Invitrogen). The bacterial strain methicillin-sensitive S. aureus (MSSA) ATCC 29213, E. faecalis ATCC 29212, E. coli ATCC 25922 were cultured in MHB at 37° C. 50 μL of different concentrations of Se NPs, Se NP-ε-PL or pure ε-PL in PBS solution was added into each well of 96-well microplates. 50 μL MHB with 2.5×10^6 cells/mL bacteria was then added into each well. 50 μL MHB with 2.5×10^6 cells/mL bacteria was added to 50 μL PBS to act as untreated control. Carbonyl cyanide 3-chlorophenylhydrazone (CCCP) was added to untreated control at a final concentration of 5 μM to act as fully depolarized control. 3,3′-Diethyloxacarbocyanine Iodide (DiOC2(3)) was added to all wells at a final concentration of […]. […] The untreated (polarized) and CCCP-treated (fully depolarized) controls were used to determine the percentage of depolarized cells. Two independent experiments were done for this test, and two technical replicates were adopted for each independent experiment."}},
  "data": [
    {"substance": "ε-poly-L-lysine [ε-PL]", "values": [
      {"measurement": "cell membrane disruption (PI positive cells)", "setting": "[1]", "result": "membrane disruption effects"},
      {"measurement": "toxicity to HDF cells (cell viability, CCK-8)", "setting": "[2]", "result": "no significant toxicity"},
      {"measurement": "ATP depletion", "setting": "E. coli ATCC 25922", "result": "higher ATP depletion effect than Se NPs"},
      {"measurement": "ROS production (high ROS production cells)", "setting": "E. faecalis ATCC 29212", "result": "almost no promoting effects on ROS production"},
      {"measurement": "depolarisation of cell membrane", "setting": "[3]", "result": "depolarized cell membranes"}
    ]}
  ]
}
